Experimental data from PMC6018746, “Activation of the p53-MDM4 regulatory axis defines the anti-tumour response to PRMT5 inhibition through its role in regulating cellular splicing” (Scientific Reports, 2018).
Like-named read-outs stand apart in the source and are kept apart here.

Test system: panel of 240 cancer cell lines
Assay: 10-day growth/death assay (Eurofins panel)
Assay type: cell-based
Conditions: Homo sapiens, read-out: gIC50
Text: To further develop these molecules and to guide clinical strategy, it was necessary to understand sensitivity in preclinical models by assessing the anti-tumour activity of the PRMT5 inhibitors in various cancers. […] Lymphoma, including MCL and diffuse large B-cell lymphoma (DLBCL), breast, and multiple myeloma cell lines were among the most sensitive tumour types and had gIC50 values in the low nM range (Fig. 1B). […] Since lymphoma and breast cancer cell lines were among the most sensitive in the proliferation screens, subsequent mechanistic studies were performed in these tumour types.

Which results are given for `O=C(NC[C@H](O)CN1CCc2ccccc2C1)c1ccnc(NC2CCC2)c1` [GSK3203591]?
IC50 (22Rv1, 22Rv1): 2480 nM; IC50 (639-V): 342 nM; IC50 (647-V): 62 nM; IC50 (769-P): 203 nM; IC50 (786-0, 786-O): 20.3 nM; IC50 (5637.000): 285 nM; IC50 (A7): 36.7 nM; IC50 (A101D): 190 nM; IC50 (A 172, A172): 29.6 nM; IC50 (A204, A204): 223 nM; IC50 (A498, A498): 50.7 nM; IC50 (A549, A549): 80.9 nM; IC50 (A673, A-673): 119 nM; IC50 (A-375, A375): 79.6 nM; IC50 (A-431, A431): 549 nM; IC50 (ACHN): 38.6 nM; IC50 (AGS): 2030 nM; IC50 (AN3-CA, AN3 CA): 254 nM; IC50 (ARH-77, ARH-77): 44.4 nM; IC50 (ASPC1, AsPC-1): 302 nM; IC50 (AU565, AU565): 14.6 nM; IC50 (BC1, BC-1): 69.6 nM; IC50 (BE(2)-C, BE(2)C): 803 nM; IC50 (BFTC-905, BFTC-905): 259 nM; IC50 (BPH-1, BPH1): 718 nM; IC50 (BT-20, BT20): 2280 nM; IC50 (BT-474, BT474): 172 nM; IC50 (BT-549, BT-549): 59.4 nM; IC50 (BV-173, BV-173): 10.6 nM; IC50 (BXPC-3, BxPC-3): 160 nM; IC50 (BeWo): 1090 nM; IC50 (C32, C32): 14.1 nM; IC50 (C-4-II, C-4 II): 266 nM; IC50 (C-4I): 139 nM; IC50 (C-33-A, C-33A): 228 nM; IC50 (CAKI-1, Caki-1): 68.8 nM; IC50 (CAKI-2, Caki-2): 114 nM; IC50 (CAL-27, Cal 27): 103 nM; IC50 (CAL-62, CAL-62): 253 nM; IC50 (CAMA-1, CAMA-1): 78.9 nM; IC50 (CAPAN-1, Capan-1): 370 nM; IC50 (CCF-STTG1, CCF-STTG1): 115 nM; IC50 (CCRF-CEM, CCRFCEM): 3140 nM; IC50 (CEM/C1, CEM-C1): 7.92 nM; IC50 (CFPAC-1, CFPAC-1): 52.3 nM; IC50 (CGTH-W-1, CGTH-W-1): 82.2 nM; IC50 (CHL-1, CHL-1): 247 nM; IC50 (CHP-212, CHP-212): 24 nM; IC50 (CML-T1, CML-T1): 16.1 nM; IC50 (COLO 201, Colo 201): 49.6 nM; IC50 (COLO 205, Colo 205): > 10000 nM; IC50 (COLO 320DM): 82.5 nM; IC50 (COLO-320-HSR, Colo 320 HSR): 80.3 nM; IC50 (COLO-829, COLO 829): 54.4 nM; IC50 (COR-L23, COR-L23): 147 nM; IC50 (COR-L105, COR-L105): 314 nM; IC50 (CRO-AP2, CRO-AP2): 250 nM; IC50 (Calu-1, Calu1): 3050 nM; IC50 (Caov-3, CaOV3): 298 nM; IC50 (Capan-2, Capan-2): 69.7 nM; IC50 (ChaGo-K-1, ChaGoK1): 1190 nM; IC50 (D283 Med): 23.5 nM; IC50 (DB): 2.51 nM; IC50 (DBTRG-05MG): 156 nM; IC50 (DK-MG): 89.5 nM; IC50 (DLD-1, DLD-1): 134 nM; IC50 (DMS-114, DMS114): 1010 nM; IC50 (DOHH-2, DOHH-2): 157 nM; IC50 (Daoy): 270 nM; IC50 (Daudi): 142 nM; IC50 (Detroit 562, Detroit 562): 104 nM; IC50 (DoTc2-4510, DoTc2 4510): 95.8 nM; IC50 (EB-3, EB-3): 299 nM; IC50 (EFM-19, EFM-19): 69.5 nM; IC50 (EM-2, EM-2): 94 nM; IC50 (ES-2, ES-2): 106 nM; IC50 (FaDu): 15.4 nM; IC50 (G-401, G-401): 38.4 nM; IC50 (G-402, G-402): 99.7 nM; IC50 (H4): 151 nM; IC50 (HCT-8, HCT-8): 430 nM; IC50 (HCT-15, HCT-15): 68.4 nM; IC50 (HCT-116, HCT-116): 166 nM; IC50 (HEC-1-A): 2440 nM; IC50 (HEL 92.1.7, HEL-92-1-7): 9.02 nM; IC50 (HLE): 174 nM; IC50 (HLF): 87.7 nM; IC50 (HMCB): 666 nM; IC50 (HOS): 223 nM; IC50 (HPAF-II): 154 nM; IC50 (HT1197, HT-1197): 98.9 nM; IC50 (HT-3, HT-3): > 10000 nM; IC50 (HT-29, HT-29): 95.2 nM; IC50 (HT-1080, HT-1080): 53.5 nM; IC50 (HT-1376, HT1376): 297 nM; IC50 (HT): 206 nM; IC50 (HUH-6-clone5, HUH-6 Clone 5): 361 nM; IC50 (HeLa): 230 nM; IC50 (HepG2, HepG2): 214 nM; IC50 (Hs 294T): 12.3 nM; IC50 (Hs 695T): 602 nM; IC50 (Hs746T, HS 746T): 171 nM; IC50 (Hs766T): 1120 nM; IC50 (Hs-578T, Hs 578T): 947 nM; IC50 (HuCCT-1, HuCCT1): 225 nM; IC50 (HuP-T4, HuP-T4): 84.9 nM; IC50 (J82, J82): 83.1 nM; IC50 (J-RT3-T3-5, J-RT3-T3-5): 43.2 nM; IC50 (JAR): 485 nM; IC50 (JEG-3, JEG-3): 216 nM; IC50 (Jurkat): 130 nM; IC50 (K562, K562): 146 nM; IC50 (KATO III): 16.7 nM; IC50 (KHOS-240S): 124 nM; IC50 (KLE): > 10000 nM; IC50 (KPL-1, KPL-1): 1330 nM; IC50 (L-428, L-428): 330 nM; IC50 (LNCaP): 2930 nM; IC50 (LS174T, LS-174T): 170 nM; IC50 (MC-IXC): 615 nM; IC50 (MCF7, MCF7): 10.9 nM; IC50 (MDA-MB-231, MDA MB 231): 56.7 nM; IC50 (MDA-MB-436, MDA-MB-436): 49.7 nM; IC50 (MDA-MB-453, MDA MB 453): 64.5 nM; IC50 (MDA-MB-468, MDA MB 468): 4.83 nM; IC50 (MEG-01, MEG01): > 10000 nM; IC50 (MES-SA): 72 nM; IC50 (MG-63, MG-63): 96 nM; IC50 (MHH-PREB-1, MHH-PREB-1): > 10000 nM; IC50 (MIA PaCa-2, Mia PaCa-2): 158 nM; IC50 (MOLT-3, MOLT-3): 217 nM; IC50 (MOLT-16, MOLT-16): 54.2 nM; IC50 (MT-3, MT-3): 46.4 nM; IC50 (MV4-11, MV-4-11): 65.8 nM; IC50 (MX1, MX1): 294 nM; IC50 (Malme-3M, MALME3M): 265 nM; IC50 (MeWo): 249 nM; IC50 (NALM-6, NALM-6): 110 nM; IC50 (NCI-H69, NCI-H69): 144 nM; IC50 (NCI-H295R): > 10000 nM; IC50 (NCI-H441, NCIH441): 556 nM; IC50 (NCI-H446, NCIH446): 570 nM; IC50 (NCI-H460, NCI-H460): 224 nM; IC50 (NCI-H508, NCI-H508): 307 nM; IC50 (NCI-H520, NCI-H520): 15.6 nM; IC50 (NCI-H596, NCI-H596): 188 nM; IC50 (NCI-H661, NCI-H661): 152 nM; IC50 (NCI-H747, NCI-H747): 2580 nM; IC50 (OCUG-1, OCUG-1): 379 nM; IC50 (OE19, OE19): 98 nM; IC50 (OE33, OE33): 231 nM; IC50 (OVCAR-3, OVCAR3): 51.4 nM; IC50 (PANC-1, PANC-1): 165 nM; IC50 (PC-3, PC-3): 873 nM; IC50 (RD): 639 nM; IC50 (RKO): 772 nM; IC50 (RKOAS451, RKO-AS45-1): 113 nM; IC50 (RKOE6, RKOE6): 210 nM; IC50 (RL95-2, RL95-2): 218 nM; IC50 (RPMI-6666, RPMI 6666): 748 nM; IC50 (RPMI-7951, RPMI-7951): 44.2 nM; IC50 (RPMI-8226, RPMI 8226): 58.4 nM; IC50 (Raji): 24.5 nM; IC50 (Ramos, Ramos (RA 1)): 546 nM; IC50 (SAOS-2, SaOS2): 48.2 nM; IC50 (SCC-4, SCC-4): 286 nM; IC50 (SCC-9, SCC-9): 747 nM; IC50 (SCC-25, SCC-25): 273 nM; IC50 (SCaBER): 123 nM; IC50 (SH-4, SH-4): 75.2 nM; IC50 (SJRH30, SJRH30): 472 nM; IC50 (SK-BR-3, SK-BR-3): 76.4 nM; IC50 (SK-LMS-1, SK-LMS-1): 113 nM; IC50 (SK-MEL3, SK-MEL-3): 181 nM; IC50 (SK-MEL-1, SK-MEL-1): 38.7 nM; IC50 (SK-MEL-28, SK-MEL-28): 239 nM; IC50 (SK-MES-1, SKMES1): 807 nM; IC50 (SK-N-AS): 31.9 nM; IC50 (SK-N-DZ): 257 nM; IC50 (SK-N-FI): 308 nM; IC50 (SK-NEP-1, SK-NEP-1): 264 nM; IC50 (SK-OV-3, SKOV3): 52.6 nM; IC50 (SK-UT-1, SK-UT-1): 42.1 nM; IC50 (SKO-007, SKO-007): 84.4 nM; IC50 (SNB-19, SNB-19): 223 nM; IC50 (SNU1, SNU-1): 1040 nM; IC50 (SNU-16, SNU-16): 34.4 nM; IC50 (SNU-423, SNU-423): 66 nM; IC50 (SR): 275 nM; IC50 (ST486, ST486): 101 nM; IC50 (SU.86.86, SU.86.86): 934 nM; IC50 (SW13, SW-13): 211 nM; IC50 (SW48, SW48): > 10000 nM; IC50 (SW480, SW480): 413 nM; IC50 (SW579, SW579): 83.3 nM; IC50 (SW684, SW684): 1170 nM; IC50 (SW837, SW837): 102 nM; IC50 (SW872, SW872): 54 nM; IC50 (SW900, SW900): 3250 nM; IC50 (SW948, SW948): 120 nM; IC50 (SW 954, SW954): > 10000 nM; IC50 (SW1088, SW1088): 40.5 nM; IC50 (SW1353, SW1353): 129 nM; IC50 (SW1417, SW1417): 773 nM; IC50 (SW1463, SW1463): 770 nM; IC50 (SW1783, SW1783): 389 nM; IC50 (SW-403, SW403): 153 nM; IC50 (SW-620, SW620): 5640 nM; IC50 (SiHa): 2510 nM; IC50 (T47D): 52.4 nM; IC50 (T98G): 27.3 nM; IC50 (T-24, T24): 449 nM; IC50 (TCC-SUP, TCCSUP): 235 nM; IC50 (THP-1, Thp1): 80.5 nM; IC50 (U138-MG, U-138MG): 43.3 nM; IC50 (U266B1): 78.5 nM; IC50 (U-87 MG): 67.6 nM; IC50 (UMUC3, UM-UC-3): 105 nM; IC50 (WI-38, Wi38): 18.5 nM; IC50 (WiDr): 505 nM; IC50 (Y79, Y79): 113 nM; IC50 (YAPC): 168 nM
